# Measurements: paper PMC13224317 (SLAS discovery : advancing life sciences R & D, 2025)
# Several values for one entry are separate records, joined by “and”; a condition that tells them apart may be missing. Equal entries are not always repeated. Where two headings read alike, the source gives them in different places.
# How the values were obtained:
# icSARS-CoV-2-nLuc [1] = assay: microbe, parasite or virus in culture; format: cell-based, SARS-CoV-2
# C3 cell line = assay: Cytotoxicity toward the C3 cell line (single point at 10 μM and CC50); format: cell-based; conditions: raw well reading, duplicate wells
# Method: The rate of false positive hits was 2.5% between the two biological replicates. […] The 3 compounds have CC50 equal to- or higher than 36 μM. Based on available information, these three compounds have not been tested against SARS-CoV-2 nor have any reports of antiviral activity, and therefore warrant further investigation.
# icSARS-CoV-2-nLuc [2] = format: cell-based, SARS-CoV-2
# icSARS-CoV-2-nLuc [3] = assay: microbe, parasite or virus in culture; format: cell-based, SARS-CoV-2; conditions: Severe acute respiratory syndrome coronavirus 2, 48 h, read-out: IC50 against icSARS-CoV-2-nLuc, immunofluorescence data
# icSARS-CoV-2-nLuc [4] = format: cell-based, SARS-CoV-2; remark: listed apart in the source
# [5] = Severe acute respiratory syndrome coronavirus 2, A549-ACE2, read-out: IC50, susceptibility of icSARS-CoV-2-nLuc to reference drugs, luminescence readout
smiles,measurement,setting,value
"CC(C)(C)NC(=O)N[C@H](C(=O)N1C[C@H]2[C@@H]([C@H]1C(=O)NC(CC1CCC1)C(=O)C(N)=O)C2(C)C)C(C)(C)C (some centres unmarked) [Boceprelvir, Boceprevir]",IC50,icSARS-CoV-2-nLuc [1]; [5],3000 nM
same,"raw nLuc luminescence signal per well, dose response",icSARS-CoV-2-nLuc [1]; concentration 0.444444 µM,1318016 and 1552909 and 1027714 and 1937158 and 1341520 and 1697592 and 1866146 and 1427750
same,"raw nLuc luminescence signal per well, dose response",icSARS-CoV-2-nLuc [1]; concentration 1.33333 µM,1081320 and 1354101 and 1808712 and 2111860 and 1262757 and 1236512 and 1094043 and 1751641
same,"raw nLuc luminescence signal per well, dose response",icSARS-CoV-2-nLuc [1]; concentration 12 µM,325338 and 397893 and 288277 and 313675 and 434098 and 457388 and 421160 and 498406
same,"raw nLuc luminescence signal per well, dose response",icSARS-CoV-2-nLuc [1]; concentration 36 µM,152331 and 158422 and 131796 and 134954 and 143730 and 155578 and 143192 and 145460
CCCC[C@H](NC(=O)[C@@H]1[C@@H]2[C@H](CN1C(=O)[C@@H](NC(=O)NC1(CS(=O)(=O)C(C)(C)C)CCCCC1)C(C)(C)C)C2(C)C)C(=O)C(=O)NC1CC1 [Naraprelvir],"raw nLuc luminescence signal per well, dose response",icSARS-CoV-2-nLuc [1]; concentration 0.00548697 µM,1369356 and 1475085 and 1731318 and 2527784 and 1481798 and 1643468 and 2199354 and 1849240
same,"raw nLuc luminescence signal per well, dose response",icSARS-CoV-2-nLuc [1]; concentration 0.0493827 µM,1943993 and 1719572 and 1531026 and 1265407 and 2037762 and 2296036 and 2164802 and 2297300
same,"raw nLuc luminescence signal per well, dose response",icSARS-CoV-2-nLuc [1]; concentration 36 µM,156020 and 155359 and 134274 and 128833 and 143226 and 151190 and 148617 and 136366
CC(C)C(=O)OC[C@H]1O[C@@H](n2ccc(NO)nc2=O)[C@H](O)[C@@H]1O [Molnupiravir],IC50,icSARS-CoV-2-nLuc [1]; [5],1200 nM
same,"raw nLuc luminescence signal per well, dose response",icSARS-CoV-2-nLuc [1]; concentration 4 µM,595475 and 830276 and 640577 and 536261 and 913575 and 492391 and 665617 and 629700
same,"raw nLuc luminescence signal per well, dose response",icSARS-CoV-2-nLuc [1]; concentration 12 µM,258630 and 294602 and 224846 and 411089 and 320496 and 281484 and 318686 and 264637
same,"raw nLuc luminescence signal per well, dose response",icSARS-CoV-2-nLuc [1]; concentration 36 µM,206765 and 173526 and 155560 and 157303 and 194898 and 197104 and 194373 and 153593
CCCC[C@H](NC(=O)[C@@H]1[C@@H]2[C@H](CN1C(=O)[C@@H](NC(=O)NC1(CS(=O)(=O)C(C)(C)C)CCCCC1)C(C)(C)C)C2(C)C)C(=O)C(=O)NC1CC1 [Narlaprevir],IC50,icSARS-CoV-2-nLuc [1]; [5],2000 nM
"CCC(CC)COC(=O)[C@H](C)N[P@](=O)(OC[C@H]1O[C@@](C#N)(c2ccc3c(N)ncnn23)[C@H](O)[C@@H]1O)Oc1ccccc1 [REM, Remdesivir]","MMV hits Cytotoxicity testing, raw plate signal",C3 cell line; REM 0.0175781 µM,281684 and 292421
same,"MMV hits Cytotoxicity testing, raw plate signal",C3 cell line; REM 0.0351562 µM,291406 and 276805
same,"MMV hits Cytotoxicity testing, raw plate signal",C3 cell line; REM 0.0703125 µM,281356 and 294787
same,"MMV hits Cytotoxicity testing, raw plate signal",C3 cell line; REM 0.140625 µM,287615 and 296564
same,"MMV hits Cytotoxicity testing, raw plate signal",C3 cell line; REM 0.28125 µM,294079 and 296093
same,"MMV hits Cytotoxicity testing, raw plate signal",C3 cell line; REM 0.5625 µM,294522 and 291744
same,"MMV hits Cytotoxicity testing, raw plate signal",C3 cell line; REM 1.125 µM,302792 and 294805
same,"MMV hits Cytotoxicity testing, raw plate signal",C3 cell line; REM 2.25 µM,325677 and 303163
same,"MMV hits Cytotoxicity testing, raw plate signal",C3 cell line; REM 4.5 µM,318660 and 288026
same,%Spec,icSARS-CoV-2-nLuc [2],89.5% and 90.0% and 90.1%
same,"Luminescence signal, Mean (Low signal)",icSARS-CoV-2-nLuc [2],181028.44 and 176326.81 and 171413.00
same,"Luminescence signal, Mean (Mid signal)",icSARS-CoV-2-nLuc [2],237318.53 and 220683.44 and 197501.22
same,antiviral activity (raw luminescence signal per well),icSARS-CoV-2-nLuc [1],150661 and 137685 and 146593 and 141302
same,IC50,"icSARS-CoV-2-nLuc [1]; Severe acute respiratory syndrome coronavirus 2, A549-ACE2, 24 h, read-out: IC50 against icSARS-CoV-2-nLuc, luminescence data",110 nM
same,inhibition at 10 µM,"icSARS-CoV-2-nLuc [1]; Severe acute respiratory syndrome coronavirus 2, A549-ACE2, 24 h, read-out: inhibition of the virus growth, single point screening",≥ 90%
same,"raw nLuc luminescence signal per well, dose response",icSARS-CoV-2-nLuc [1]; concentration 0.444444 µM,158425 and 172179 and 190756 and 205337
same,"raw nLuc luminescence signal per well, dose response",icSARS-CoV-2-nLuc [1]; concentration 4 µM,140393 and 141108 and 138540
same,"raw nLuc luminescence signal per well, dose response",icSARS-CoV-2-nLuc [1]; concentration 36 µM,142704 and 141754 and 139812
same,IC50,icSARS-CoV-2-nLuc [3],110 nM
same,Low (luminescence signal),icSARS-CoV-2-nLuc [4],335845.000 and 285428.000 and 332082.000 and 282797.000
same,Mid %,icSARS-CoV-2-nLuc [4],82.63% and 75.37% and 74.20% and 71.84%
same,Mid (luminescence signal),icSARS-CoV-2-nLuc [4],685741.000 and 855540.000 and 882878.000 and 938084.000
same,Midpc,icSARS-CoV-2-nLuc [4],82.63 and 75.37 and 74.20 and 71.84
CC(C)(C)[C@H](NC(=O)C(F)(F)F)C(=O)N1C[C@H]2[C@@H]([C@H]1C(=O)N[C@H](C#N)C[C@@H]1CCNC1=O)C2(C)C [Nirmatrelvir],IC50,icSARS-CoV-2-nLuc [1]; [5],30 nM
same,"raw nLuc luminescence signal per well, dose response",icSARS-CoV-2-nLuc [1]; concentration 0.148148 µM,129461 and 120874 and 136852 and 130464 and 147289 and 142579 and 149179 and 144629
same,"raw nLuc luminescence signal per well, dose response",icSARS-CoV-2-nLuc [1]; concentration 0.444444 µM,144250 and 143681 and 125477 and 126336 and 137581 and 142321 and 138240 and 131508
same,"raw nLuc luminescence signal per well, dose response",icSARS-CoV-2-nLuc [1]; concentration 1.33333 µM,118306 and 118449 and 125083 and 124306 and 125230 and 130577 and 130784 and 122912
same,"raw nLuc luminescence signal per well, dose response",icSARS-CoV-2-nLuc [1]; concentration 4 µM,141288 and 139348 and 122581 and 121573 and 133806 and 135394 and 143645 and 132419
same,"raw nLuc luminescence signal per well, dose response",icSARS-CoV-2-nLuc [1]; concentration 12 µM,120474 and 114610 and 123671 and 120946 and 130686 and 127115 and 126419 and 123917
same,"raw nLuc luminescence signal per well, dose response",icSARS-CoV-2-nLuc [1]; concentration 36 µM,145649 and 139944 and 128235 and 120973 and 144302 and 134374 and 139812 and 128239
CC(C)c1nc(CN(C)C(=O)N[C@H](C(=O)N[C@@H](Cc2ccccc2)C[C@H](O)[C@H](Cc2ccccc2)NC(=O)OCc2cncs2)C(C)C)cs1 [Ritonavir],IC50,icSARS-CoV-2-nLuc [1]; [5],7200 nM
same,"raw nLuc luminescence signal per well, dose response",icSARS-CoV-2-nLuc [1]; concentration 0.444444 µM,2035673 and 1546345 and 1888256 and 1167395 and 1955627 and 1676062 and 1569839 and 1463523
same,"raw nLuc luminescence signal per well, dose response",icSARS-CoV-2-nLuc [1]; concentration 4 µM,1601511 and 1681837 and 928783 and 1028382 and 1282975 and 1526902 and 1006334 and 1132442
same,"raw nLuc luminescence signal per well, dose response",icSARS-CoV-2-nLuc [1]; concentration 36 µM,183316 and 177778 and 167818 and 167859 and 159406 and 217854 and 184869 and 201752
